Patent US4112228A, “7-(D-α-Hydroxy-2-arylacetamido)-3-(2-carboxyalkyl-2,3-dihydro-s-tri azolo-[4,3-b]pyridazin-3-on-6-ylthiomethyl)-3-cephem-4-carboxylic acids and derivatives” (priority 1977, dated 1978)
≈ marks a conversion by molar mass, not a printed value.

What was measured:
S. aureus = test: MIC by Steers' agar dilution method; format: cell-based; conditions: Staphylococcus aureus
Shig. flexneri = test: MIC by Steers' agar dilution method; format: cell-based; conditions: Shigella flexneri, MHA
P. stuartii = test: MIC by Steers' agar dilution method; conditions: Providencia stuartii
E. coli Juhl = test: Standard experimental infection in mice; format: in vivo; conditions: Table 6
Citrobacter sp. = test: MIC by Steers' agar dilution method
Shig. dysenteriae = test: MIC by Steers' agar dilution method; conditions: Shigella dysenteriae, MHA

Question: How did the MIC (S. aureus; Sa-3 No. 193, MHA, Table 2) turn out when O=C(O)Cn1nc2ccc(SCC3=C(C(=O)O)N4C(=O)C(NC(=O)[C@H](O)c5ccccc5)[C@H]4SC3)nn2c1=O (stereo partly drawn) [BB-S488, 7-(D-Mandelamido)-3-(2-carboxymethyl-2,3-dihydro-s-triazolo[4,3-b]pyridazin-3-on-6-ylthiomethyl)-3-cephem-4-carboxylic Acid] was run?
Answer: The MIC was 0.8 µg/mL (≈ 1.4 µM).

Question: And the MIC (S. aureus; Sa-8, MHA, Table 2)?
Answer: The MIC was 0.4 µg/mL (≈ 0.699 µM).

Question: What about the MIC (S. aureus; Sa-9 No. 193, MHA, Table 2) of the same molecule?
Answer: The MIC was 0.8 µg/mL (≈ 1.4 µM).

Question: What about the MIC (S. aureus; Sa-10 A20239, MHA, Table 2) of the same molecule?
Answer: The MIC was 1.6 µg/mL (≈ 2.79 µM).

Question: And the MIC (S. aureus; Sa-11 BX-1633 A9606 (β-lactamase), HIA, Table 4)?
Answer: The MIC was 1.6 µg/mL (≈ 2.79 µM).

Question: And the MIC (S. aureus; Sa-11 BX-1633 A9606 (β-lactamase), MHA, Table 4)?
Answer: Its MIC is 0.8 µg/mL (≈ 1.4 µM).

Question: And the MIC (S. aureus; Sa-11 BX-1633 A9606 (β-lactamase), NA, Table 4)?
Answer: The MIC was 3.1 µg/mL (≈ 5.41 µM).

Question: And the MIC (S. aureus; Sa-11 BX-1633 A9606, MHA, Table 2)?
Answer: Its MIC is 0.4 µg/mL (≈ 0.699 µM).

Question: And the MIC (S. aureus; Sa-12 A9497, MHA, Table 2)?
Answer: The MIC was 0.2 µg/mL (≈ 0.349 µM).

Question: What about the MIC (S. aureus; Sa-29 No. 193, MHA, Table 2) of the same molecule?
Answer: The MIC was 1.6 µg/mL (≈ 2.79 µM).

Question: And the MIC (S. aureus; Sa-33 Terajima, MHA, Table 2)?
Answer: The MIC was 0.0125 µg/mL (≈ 0.0218 µM).

Question: And the MIC (S. aureus; Sa-34 A15092, MHA, Table 2)?
Answer: Its MIC is 0.8 µg/mL (≈ 1.4 µM).

Question: And the MIC (S. aureus; Sa-35 A15094, MHA, Table 2)?
Answer: Its MIC is 0.8 µg/mL (≈ 1.4 µM).

Question: And the MIC (S. aureus; Sa-36 Russell, MHA, Table 2)?
Answer: The MIC was 0.8 µg/mL (≈ 1.4 µM).

Question: What about the MIC (S. aureus; Sa-37 A9524, MHA, Table 2) of the same molecule?
Answer: The MIC was 1.6 µg/mL (≈ 2.79 µM).

Question: What about the MIC (S. aureus; Sa-38 A9534, MHA, Table 2) of the same molecule?
Answer: Its MIC is 0.4 µg/mL (≈ 0.699 µM).

Question: What about the MIC (S. aureus; Sa-39 A9578, MHA, Table 2) of the same molecule?
Answer: Its MIC is 0.8 µg/mL (≈ 1.4 µM).

Question: And the MIC (S. aureus; Sa-40 A9601, MHA, Table 2)?
Answer: The MIC was 0.8 µg/mL (≈ 1.4 µM).

Question: What about the MIC (S. aureus; Sa-41 A9602, MHA, Table 2) of the same molecule?
Answer: The MIC was 0.8 µg/mL (≈ 1.4 µM).

Question: And the MIC (S. aureus; Sa-44 A15097, HIA, Table 4)?
Answer: The MIC was > 100 µg/mL.

Question: And the MIC (S. aureus; Sa-44 A15097, MHA, Table 2)?
Answer: The MIC was 25 µg/mL (≈ 43.7 µM).

Question: And the MIC (S. aureus; Sa-44 A15097, MHA, Table 4)?
Answer: The MIC was 100 µg/mL (≈ 175 µM).

Question: What about the MIC (S. aureus; Sa-44 A15097, NA, Table 4) of the same molecule?
Answer: The MIC was > 100 µg/mL.

Question: What about the MIC (S. aureus; Sa-56 A9630, MHA, Table 2) of the same molecule?
Answer: Its MIC is 3.1 µg/mL (≈ 5.41 µM).

Question: What about the MIC (S. aureus; Sa-57 A9748, MHA, Table 2) of the same molecule?
Answer: Its MIC is 25 µg/mL (≈ 43.7 µM).

Question: And the MIC (S. aureus; Sa-58 A15033, MHA, Table 2)?
Answer: The MIC was 12.5 µg/mL (≈ 21.8 µM).

Question: And the MIC (S. aureus; Sa-59 A15096, MHA, Table 2)?
Answer: Its MIC is 100 µg/mL (≈ 175 µM).

Question: What about the MIC (S. aureus; Sa-60 A20604, MHA, Table 2) of the same molecule?
Answer: Its MIC is 50 µg/mL (≈ 87.3 µM).

Question: And the MIC (S. aureus; Sa-61 A20605, MHA, Table 2)?
Answer: Its MIC is 100 µg/mL (≈ 175 µM).

Question: What about the MIC (S. aureus; Sa-62 A20606, MHA, Table 2) of the same molecule?
Answer: The MIC was 3.1 µg/mL (≈ 5.41 µM).

Question: And the MIC (S. aureus; Sa-63 A20607, MHA, Table 2)?
Answer: The MIC was > 100 µg/mL.

Question: What about the MIC (S. aureus; Sa-64 A20608, MHA, Table 2) of the same molecule?
Answer: The MIC was 100 µg/mL (≈ 175 µM).

Question: What about the MIC (S. aureus; Sa-65 A20609, MHA, Table 2) of the same molecule?
Answer: The MIC was 100 µg/mL (≈ 175 µM).

Question: What about the MIC (S. aureus; Sa-66 A20610, MHA, Table 2) of the same molecule?
Answer: Its MIC is 100 µg/mL (≈ 175 µM).

Question: And the MIC (S. aureus; Sa-67 A20611, MHA, Table 2)?
Answer: Its MIC is 100 µg/mL (≈ 175 µM).

Question: And the MIC (S. aureus; Sa-68 A20612, MHA, Table 2)?
Answer: Its MIC is 1.6 µg/mL (≈ 2.79 µM).

Question: And the MIC (S. aureus; Sa-69 A20613, MHA, Table 2)?
Answer: The MIC was 100 µg/mL (≈ 175 µM).

Question: What about the MIC (S. aureus; Smith A9537, MHA, Table 1) of the same molecule?
Answer: Its MIC is 0.2 µg/mL (≈ 0.349 µM).

Question: What about the MIC (S. aureus; Smith, MHA, Example 10) of the same molecule?
Answer: The MIC was 0.8 µg/mL (≈ 1.4 µM).

Question: And the MIC (S. aureus; strain not named, MHA, Example 10)?
Answer: Its MIC is 0.4 µg/mL (≈ 0.699 µM).

Question: And the MIC (Shig. flexneri; A9684, Table 1)?
Answer: The MIC was 12.5 µg/mL (≈ 21.8 µM).

Question: What about the MIC (Shig. flexneri; Example 10) of the same molecule?
Answer: Its MIC is 25 µg/mL (≈ 43.7 µM).

Question: What about the MIC (Shig. flexneri; Sr-1 A9684, Table 3) of the same molecule?
Answer: The MIC was 12.5 µg/mL (≈ 21.8 µM).

Question: What about the MIC (P. stuartii; Ps-1 A20745, HIA, Table 4) of the same molecule?
Answer: Its MIC is 50 µg/mL (≈ 87.3 µM).

Question: And the MIC (P. stuartii; Ps-1 A20745, MHA, Table 3)?
Answer: The MIC was 0.4 µg/mL (≈ 0.699 µM).

Question: What about the MIC (P. stuartii; Ps-1 A20745, MHA, Table 4) of the same molecule?
Answer: Its MIC is 12.5 µg/mL (≈ 21.8 µM).

Question: And the MIC (P. stuartii; Ps-1 A20745, NA, Table 4)?
Answer: The MIC was 50 µg/mL (≈ 87.3 µM).

Question: What about the MIC (P. stuartii; Ps-2 A20894, HIA, Table 4) of the same molecule?
Answer: The MIC was 0.4 µg/mL (≈ 0.699 µM).

Question: What about the MIC (P. stuartii; Ps-2 A20894, MHA, Table 3) of the same molecule?
Answer: Its MIC is 0.2 µg/mL (≈ 0.349 µM).

Question: And the MIC (P. stuartii; Ps-2 A20894, MHA, Table 4)?
Answer: Its MIC is 0.2 µg/mL (≈ 0.349 µM).

Question: And the MIC (P. stuartii; Ps-2 A20894, NA, Table 4)?
Answer: Its MIC is 0.8 µg/mL (≈ 1.4 µM).

Question: And the MIC (P. stuartii; Ps-3 A20911 (β-lactamase), HIA, Table 4)?
Answer: The MIC was 25 µg/mL (≈ 43.7 µM).

Question: And the MIC (P. stuartii; Ps-3 A20911 (β-lactamase), MHA, Table 4)?
Answer: The MIC was 12.5 µg/mL (≈ 21.8 µM).

Question: And the MIC (P. stuartii; Ps-3 A20911 (β-lactamase), NA, Table 4)?
Answer: The MIC was 50 µg/mL (≈ 87.3 µM).

Question: What about the MIC (P. stuartii; Ps-3 A20911, MHA, Table 3) of the same molecule?
Answer: Its MIC is 0.8 µg/mL (≈ 1.4 µM).

Question: And the MIC (P. stuartii; Ps-4 A21051, MHA, Table 3)?
Answer: Its MIC is 50 µg/mL (≈ 87.3 µM).

Question: And the MIC (P. stuartii; Ps-5 A21057, MHA, Table 3)?
Answer: The MIC was 0.2 µg/mL (≈ 0.349 µM).

Question: What about the “No. of survivors/No. tested” value (E. coli Juhl; 0.1 mg./kg.) of the same molecule?
Answer: Its value is 2/5.

Question: What about the “No. of survivors/No. tested” value (E. coli Juhl; 0.4 mg./kg.) of the same molecule?
Answer: Its value is 5/5.

Question: And the “No. of survivors/No. tested” value (E. coli Juhl; 1.6 mg./kg.)?
Answer: Its value is 5/5.

Question: What about the “No. of survivors/No. tested” value (E. coli Juhl; 6.3 mg./kg.) of the same molecule?
Answer: Its value is 5/5.

Question: What about the “No. of survivors/No. tested” value (E. coli Juhl; 25 mg./kg.) of the same molecule?
Answer: Its value is 5/5.

Question: And the ED50 (E. coli Juhl; Escherichia coli, read-out: PD50)?
Answer: The ED50 was 0.12 mg/kg.

Question: What about the MIC (Citrobacter sp.; Citrobacter) of the same molecule?
Answer: Its MIC is 1.6 µg/mL (≈ 2.79 µM).

Question: What about the MIC (Citrobacter sp.; Cx-2 A20694, MHA, Table 3) of the same molecule?
Answer: The MIC was 1.6 µg/mL (≈ 2.79 µM).

Question: And the MIC (Citrobacter sp.; Cx-3 A20695, MHA, Table 3)?
Answer: The MIC was 1.6 µg/mL (≈ 2.79 µM).

Question: And the MIC (Shig. dysenteriae; Example 10)?
Answer: The MIC was 0.025 µg/mL (≈ 0.0437 µM).

Question: What about the MIC (Shig. dysenteriae; Table 1) of the same molecule?
Answer: The MIC was 0.025 µg/mL (≈ 0.0437 µM).

Question: And the MIC (Shig. dysenteriae; Sd-1, Table 3)?
Answer: Its MIC is 0.1 µg/mL (≈ 0.175 µM).
